The text below walks through data of patent US20080207766A1, “METHODS AND COMPOSITIONS FOR TREATING AT LEAST ONE UPPER GASTROINTESTINAL SYMPTOM” (AGI Therapeutics Research Ltd., priority 2007, published 2008).

As a reminder, the Cmax is the highest concentration seen after dosing. The term Tmax denotes the time at which the peak concentration occurs.

Where a name gives a salt, the structure may show the parent alone.

For series [1], the system named is patients with functional diarrhea. The experiment in a line: Clinical study, randomized double-blind placebo-controlled forced dose escalation, 12 weeks. It is filed as in vivo, human. An excerpt:
While functional diarrhea is a condition dominated by altered lower bowel function associated with chronic diarrhea, it is also associated with upper gastrointestinal related symptoms such as nausea. For instance, patients suffering from similar lower bowel functional conditions such as IBS ([…]) have a reported incidence of nausea of 32%-other conditions also have relatively high baseline incidences of nausea, i.e., functional dyspepsia 39%, oesophagitis 17%, duodenal ulcer 34%, gastric ulcer 39%, gallstone disease 28%, alcohol related dyspepsia 37%, and gastric cancer 48%. […], ABC of the Upper Gastrointestinal Tract Anorexia, Nausea, Vomiting and Pain, 323 BMJ (8 Dec. 2001). […] Eighty-two patients (both male and female) meeting ROME II criteria (modified) for Functional Diarrhea were randomized in the study. Using an intent-to-treat analysis and the entire 12 weeks of dose-escalation therapy, the incidence of nausea in the placebo group was 20%, indicating a relatively high baseline of nausea for that condition.

A short description of series [2]: Pharmacokinetics of oral conventional formulation in adults (Young et al.). It is filed as in vivo, human. The protocol: Bear et al., Am. J. Physiol., 186, 180-86 (1956). […] Young et al., Clinical Therapeutics, 23(4) (2001). […] The typical dose used for treating hypertensive subjects is about 25 mg/day, and is dosed using conventional formulations.
For series [3] the following is noted: cited from earlier work.
[4] abbreviates: expected from Young et al. data, conventional formulation.
Where [5] appears, read: 2.5 mg dose, conventional formulation, adults.
The mark [6] stands for this setting: 7.5 mg dose, conventional formulation, adults.

Turning to `CNC1(C)C2CCC(C2)C1(C)C` (racemic) [mecamylamine], the “changes in blood pressure” value in series [1] (FIGS. 1 and 2, over the course of the study) is “no clinically significant changes”. In series [1] (intent-to-treat, entire 12 weeks, once daily 2 then 4 then 6 mg/day, placebo 20%), the incidence of nausea came to 9%. Also, in series [2] (about 25 mg/day dose for hypertensive subjects, conventional formulations), the “expected peak plasma concentration” value is “about 78.9 ng/mL”. Also, in series [2] (setting [4]), the “24 hour plasma concentration level as share of peak plasma concentration” value is “less than 25%” and the “time for which about 50% of the peak plasma concentration is maintained” value is on record as “about 14 hours”.

For the compound `CNC1(C)C2CCC(C2)C1(C)C` (stereo not shown) [mecamylamine hydrochloride, N-2,3,3-tetramethylbicyclo[2.2.1]heptan-2-amine hydrochloride], in series [3] (setting [5]), the “maximum plasma concentration (Cmax)” value is “about 7.89 ng/mL” and the “time to achieve the highest plasma concentration (Tmax)” value was 3.11 h. In addition, in series [3] (setting [6]), the Cmax is reported as 23.68 ng/mL and the Tmax is 3.04 h. For the same compound, in series [3] (dosed orally, conventional formulations (Bear et al.)), the “absorption from the gastrointestinal tract” value was “nearly completely and rapidly absorbed”.
